Source: patent US8575091B1, “Amylin analogues and pharmaceutical compositions thereof” (Novo Nordisk A/S, priority 2012, dated 2013)
Like-named read-outs stand apart in the source and are kept apart here. Numbered stars: 1 amine (or outer) side, 2 acyl side, 3 side chain; on linkers, the order of the positions; unused ones are H or OH. Bridge positions count the residues as written; N and C are the ends. Side chains are listed from the residue outwards. Peptide text beside a SMILES is read from it. * marks the point of attachment. C20 diacid = O=C(O)CCCCCCCCCCCCCCCCCCC(=O)*; γGlu = O=C(O)[C@H](CCC(=O)[*:2])N[*:1]; AEEA = NCCOCCOCC(=O)O

Tests used:
[1] = biological target: T1, human calcitonin receptor (Homo sapiens, UniProt P30988); test: Assay (VII) binding to the human calcitonin receptor (SPA, 125I-Calcitonin); settings: read-out: hCTR bind IC50;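 note: cell membranes coupled to SPA beads, competitive displacement read by scintillation counting, IC50 derived from a one-site competition fit as a measure of receptor affinity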
T1 construct: expressed in transfected cells
T1 sequence (P30988 25-474): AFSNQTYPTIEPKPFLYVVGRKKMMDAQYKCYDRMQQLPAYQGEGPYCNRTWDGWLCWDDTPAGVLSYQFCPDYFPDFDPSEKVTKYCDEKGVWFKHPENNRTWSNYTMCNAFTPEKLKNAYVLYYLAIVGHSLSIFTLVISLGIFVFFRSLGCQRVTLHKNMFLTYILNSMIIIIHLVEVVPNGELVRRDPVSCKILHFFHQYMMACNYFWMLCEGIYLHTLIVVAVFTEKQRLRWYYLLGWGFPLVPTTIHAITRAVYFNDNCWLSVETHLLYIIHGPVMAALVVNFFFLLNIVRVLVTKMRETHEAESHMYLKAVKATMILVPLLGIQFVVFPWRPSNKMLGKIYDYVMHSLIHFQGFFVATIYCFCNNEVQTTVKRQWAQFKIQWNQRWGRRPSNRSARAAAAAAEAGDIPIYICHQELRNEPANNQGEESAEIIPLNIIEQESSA

human amylin receptor = biological target: T2, human amylin receptor (Homo sapiens, UniProt O60896+P30988); test: Assay (V) binding to the human amylin receptor (SPA, 125I-rat amylin); settings: for IC50: human amylin receptor membranes, SPA, read-out: hAmylin-R bind IC50
T2 construct: expressed in transfected cells
T2 sequence (P30988 25-474): T1 sequence (P30988 25-474)
T2 sequence (O60896 24-148 partner): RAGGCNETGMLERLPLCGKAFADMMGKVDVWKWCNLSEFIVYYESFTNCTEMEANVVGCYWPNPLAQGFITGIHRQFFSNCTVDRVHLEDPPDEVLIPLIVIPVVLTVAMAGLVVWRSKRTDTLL
Method in brief: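 SPA competition binding on membranes from Amylin 3(a)/CRE-luc cells, 35 ng/μL membranes with 0.05 mg/well beads. Buffer 50 mM Hepes pH 7.4, 1 mM CaCl2, 5 mM MgCl2, 0.1% OA, 0.02% Tween20. IC50 from one-site competition fit as affinity measure.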

[2] = biological target: T1, human calcitonin receptor; test: Assay (II)a functional assay, human calcitonin receptor (CRE luciferase, BHK cells);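 note: luminescence from a CRE-driven luciferase reporter, read by single photon counting after cells were exposed to test samples for 3 h at 37 °C under 5% CO2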; format: cell-based; settings: read-out: hCTR funct. EC50
[3] = biological target: T3, human amylin receptor (amylin 3(a) receptor: human calcitonin receptor + RAMP-3) (Homo sapiens, UniProt O60896+P30988); test: Assay (II)a functional assay, human amylin receptor (CRE luciferase, BHK cells); format: cell-based; settings: for EC50: read-out: hAmylin-R funct. EC50
T3 construct: expressed in transfected cells
T3 sequence (P30988 25-474): T1 sequence (P30988 25-474)
T3 sequence (O60896 24-148 partner): T2 sequence (O60896 24-148 partner)

[4] = Table 7b, human calcitonin receptor binding IC50 divided by human amylin receptor binding IC50
[5] = human binding ratio, included for comparison
[6] = Table 6, human functional selectivity (hCTR EC50 / hAmylin-R EC50)
[7] = Table 6a, human functional selectivity (hCTR EC50 / hAmylin-R EC50), at least 5
[8] = Table 6j, hCTR funct. EC50 / hAmylin-R funct. EC50
[9] = Table 6k, hCTR funct. EC50 / hAmylin-R funct. EC50
[10] = functional assay, human amylin receptor

IC50 [1]	Ratio hCT/hAmylin binding (human amylin receptor; [4])	Ratio hCT/hAmylin binding (human amylin receptor; Table 7c, human calcitonin receptor binding IC50 divided by human amylin receptor binding IC50)	IC50 (human amylin receptor)	Ratio hCT/hAmylin binding (human amylin receptor; [5])	EC50 [2]	Ratio hCT/hAmylin funct. [3, 6]	Ratio hCT/hAmylin funct. [3, 7]	Ratio hCT/hAmylin funct. [3, 8]	Ratio hCT/hAmylin funct. [3, 9]	EC50 [3, 10]	Ratio hCT/hAmylin funct. ([3]; Table 6i, hCTR funct. EC50 / hAmylin-R funct. EC50)	EC50 ([3]; Table 6i, human amylin receptor functional)	SMILES
2.73 nM	18.0		0.152 nM	18.0	2.14 nM	9.9	9.9	9.9	9.9		9.9	0.216 nM	CC[C@H](C)[C@H](NC(=O)[C@H](C)NC(=O)CNC(=O)[C@H](Cc1ccccc1)NC(=O)[C@H](CC(N)=O)NC(=O)[C@@H]1CCCN1C(=O)[C@H](CO)NC(=O)[C@H](CO)NC(=O)[C@H](Cc1c[nH]cn1)NC(=O)[C@H](CCCNC(=N)N)NC(=O)[C@H](CC(C)C)NC(=O)[C@H](Cc1ccccc1)NC(=O)[C@H](CCC(=O)O)NC(=O)[C@H](C)NC(=O)[C@H](CC(C)C)NC(=O)[C@H](CCCNC(=N)N)NC(=O)[C@H](CCC(N)=O)NC(=O)[C@@H](NC(=O)[C@H](C)NC(=O)[C@@H]1CSSC[C@H](NC(=O)[C@@H](N)CCCCNC(=O)CC[C@H](NC(=O)CC[C@H](NC(=O)CCCCCCCCCCCCCCCCCCC(=O)O)C(=O)O)C(=O)O)C(=O)N[C@@H](CC(N)=O)C(=O)N[C@@H]([C@@H](C)O)C(=O)N[C@@H](C)C(=O)N[C@@H]([C@@H](C)O)C(=O)N1)[C@@H](C)O)C(=O)N1CCC[C@H]1C(=O)N[C@@H](CO)C(=O)N[C@@H](CO)C(=O)N[C@H](C(=O)N[C@@H](CC(N)=O)C(=O)N[C@H](C(=O)NCC(=O)N1CCC[C@H]1C(=O)N[C@@H](CC(N)=O)C(=O)N[C@H](C(=O)N[C@@H](Cc1ccccc1)C(N)=O)[C@@H](C)O)C(C)C)[C@@H](C)O [Example 127] (H-K([γGlu-γGlu-C20 diacid])CNTATCATQRLAEFLRHSSPNFGAIPSSTNVGPNTF-NH2; disulfide 2-7)
13.2 nM			0.166 nM		3.8 nM	21.0	21.0	21.0	21.0	0.181 nM			CC[C@H](C)[C@H](NC(=O)[C@H](C)NC(=O)CNC(=O)[C@H](Cc1ccccc1)NC(=O)[C@H](CC(N)=O)NC(=O)[C@@H]1CCCN1C(=O)[C@H](CO)NC(=O)[C@H](CO)NC(=O)[C@H](Cc1c[nH]cn1)NC(=O)[C@H](CCCNC(=N)N)NC(=O)[C@H](CC(C)C)NC(=O)[C@H](Cc1ccccc1)NC(=O)[C@H](CC(N)=O)NC(=O)[C@H](C)NC(=O)[C@H](CC(C)C)NC(=O)[C@H](CCCNC(=N)N)NC(=O)[C@H](CCC(N)=O)NC(=O)[C@@H](NC(=O)[C@H](C)NC(=O)[C@@H]1CSSC[C@H](NC(=O)[C@@H](N)CCCCNC(=O)COCCOCCNC(=O)COCCOCCNC(=O)CC[C@H](NC(=O)CCCCCCCCCCCCCCCCCCC(=O)O)C(=O)O)C(=O)N[C@@H](CC(N)=O)C(=O)N[C@@H]([C@@H](C)O)C(=O)N[C@@H](C)C(=O)N[C@@H]([C@@H](C)O)C(=O)N1)[C@@H](C)O)C(=O)N1CCC[C@H]1C(=O)N[C@@H](CO)C(=O)N[C@@H](CO)C(=O)N[C@H](C(=O)N1CCC[C@H]1C(=O)N[C@H](C(=O)NCC(=O)N[C@@H](CO)C(=O)N[C@@H](CC(N)=O)C(=O)N[C@H](C(=O)N[C@@H](Cc1ccc(O)cc1)C(N)=O)[C@@H](C)O)C(C)C)[C@@H](C)O [Example 96]

Further lines, the compound ahead of its results:

SMILES	IC50 [1]	Ratio hCT/hAmylin binding (human amylin receptor; [4])	Ratio hCT/hAmylin binding (human amylin receptor; Table 7c, human calcitonin receptor binding IC50 divided by human amylin receptor binding IC50)	IC50 (human amylin receptor)	Ratio hCT/hAmylin binding (human amylin receptor; [5])	EC50 [2]	Ratio hCT/hAmylin funct. [3, 6]	Ratio hCT/hAmylin funct. [3, 7]	Ratio hCT/hAmylin funct. [3, 8]	Ratio hCT/hAmylin funct. [3, 9]	EC50 [3, 10]	Ratio hCT/hAmylin funct. ([3]; Table 6i, hCTR funct. EC50 / hAmylin-R funct. EC50)	EC50 ([3]; Table 6i, human amylin receptor functional)
CC[C@H](C)[C@H](NC(=O)[C@H](C)NC(=O)CNC(=O)[C@H](Cc1ccccc1)NC(=O)[C@H](CC(N)=O)NC(=O)[C@@H]1CCCN1C(=O)[C@H](CO)NC(=O)[C@H](CO)NC(=O)[C@H](Cc1c[nH]cn1)NC(=O)[C@H](CCCNC(=N)N)NC(=O)[C@H](CC(C)C)NC(=O)[C@H](Cc1ccccc1)NC(=O)[C@H](CC(N)=O)NC(=O)[C@H](C)NC(=O)[C@H](CC(C)C)NC(=O)[C@H](CCCNC(=N)N)NC(=O)[C@H](CCC(N)=O)NC(=O)[C@@H](NC(=O)[C@H](C)NC(=O)[C@@H]1CSSC[C@H](NC(=O)[C@H](CCCCN)NC(=O)CC[C@H](NC(=O)CCCCCCCCCCCCCCCCCCC(=O)O)C(=O)O)C(=O)N[C@@H](CC(N)=O)C(=O)N[C@@H]([C@@H](C)O)C(=O)N[C@@H](C)C(=O)N[C@@H]([C@@H](C)O)C(=O)N1)[C@@H](C)O)C(=O)N1CCC[C@H]1C(=O)N[C@@H](CO)C(=O)N[C@@H](CO)C(=O)N[C@H](C(=O)N[C@@H](CC(N)=O)C(=O)N[C@H](C(=O)NCC(=O)N[C@@H](CO)C(=O)N[C@@H](CCC(=O)O)C(=O)N[C@H](C(=O)N[C@@H](Cc1ccc(O)cc1)C(N)=O)[C@@H](C)O)C(C)C)[C@@H](C)O [Example 23]	21.8 nM	25.0	25.0	0.871 nM	25.0	3.02 nM	8.9	8.9	8.9	8.9	0.34 nM		
CC[C@H](C)[C@H](NC(=O)[C@H](C)NC(=O)CNC(=O)[C@H](Cc1ccccc1)NC(=O)[C@H](CC(N)=O)NC(=O)[C@@H]1CCCN1C(=O)[C@H](CO)NC(=O)[C@H](CO)NC(=O)[C@H](Cc1c[nH]cn1)NC(=O)[C@H](CCCNC(=N)N)NC(=O)[C@H](CC(C)C)NC(=O)[C@H](Cc1ccccc1)NC(=O)[C@H](CC(=O)O)NC(=O)[C@H](C)NC(=O)[C@H](CC(C)C)NC(=O)[C@H](CCCNC(=N)N)NC(=O)[C@H](CCC(N)=O)NC(=O)[C@@H](NC(=O)[C@H](C)NC(=O)[C@@H]1CSSC[C@H](NC(=O)[C@@H](N)CCCCNC(=O)CC[C@H](NC(=O)CC[C@H](NC(=O)CCCCCCCCCCCCCCCCCCC(=O)O)C(=O)O)C(=O)O)C(=O)N[C@@H](CC(N)=O)C(=O)N[C@@H]([C@@H](C)O)C(=O)N[C@@H](C)C(=O)N[C@@H]([C@@H](C)O)C(=O)N1)[C@@H](C)O)C(=O)N1CCC[C@H]1C(=O)N[C@@H](CO)C(=O)N[C@@H](CO)C(=O)N[C@H](C(=O)N[C@@H](CC(N)=O)C(=O)N[C@H](C(=O)NCC(=O)N1CCC[C@H]1C(=O)N[C@@H](CCC(=O)O)C(=O)N[C@H](C(=O)N[C@@H](Cc1ccc(O)cc1)C(N)=O)[C@@H](C)O)C(C)C)[C@@H](C)O [Example 122] (H-K([γGlu-γGlu-C20 diacid])CNTATCATQRLADFLRHSSPNFGAIPSSTNVGPETY-NH2; disulfide 2-7)	8.56 nM			0.172 nM		0.843 nM	5.3	5.3	5.3	5.3	0.159 nM		
CC[C@H](C)[C@H](NC(=O)[C@H](C)NC(=O)CNC(=O)[C@H](Cc1ccccc1)NC(=O)[C@H](CC(N)=O)NC(=O)[C@@H]1CCCN1C(=O)[C@H](CO)NC(=O)[C@H](CO)NC(=O)[C@H](Cc1c[nH]cn1)NC(=O)[C@H](CCCNC(=N)N)NC(=O)[C@H](CC(C)C)NC(=O)[C@H](Cc1ccccc1)NC(=O)[C@H](Cc1c[nH]cn1)NC(=O)[C@H](C)NC(=O)[C@H](CC(C)C)NC(=O)[C@H](CCCNC(=N)N)NC(=O)[C@H](CCC(N)=O)NC(=O)[C@@H](NC(=O)[C@H](C)NC(=O)[C@@H]1CSSC[C@H](NC(=O)[C@@H](N)CCCCNC(=O)COCCOCCNC(=O)CC[C@H](NC(=O)CCCCCCCCCCCCCCCCCCC(=O)O)C(=O)O)C(=O)N[C@@H](CC(N)=O)C(=O)N[C@@H]([C@@H](C)O)C(=O)N[C@@H](C)C(=O)N[C@@H]([C@@H](C)O)C(=O)N1)[C@@H](C)O)C(=O)N1CCC[C@H]1C(=O)N[C@@H](CO)C(=O)N[C@@H](CO)C(=O)N[C@H](C(=O)N1CCC[C@H]1C(=O)N[C@H](C(=O)NCC(=O)N[C@@H](CO)C(=O)N[C@@H](CC(N)=O)C(=O)N[C@H](C(=O)N[C@@H](Cc1ccc(O)cc1)C(N)=O)[C@@H](C)O)C(C)C)[C@@H](C)O [Example 61] (H-K([AEEA-γGlu-C20 diacid])CNTATCATQRLAHFLRHSSPNFGAIPSSTPVGSNTY-NH2; disulfide 2-7)	8.11 nM			0.122 nM		0.554 nM					0.051 nM		
